Consider one molecule from patent publication US10864168B2, “Bioactive delivery vehicles” (The Regents of the University of California, priority 2014, dated 2020).

Each structure is given as a SMILES string.

For the data set, the system named is L. starkeyi (51-55). The data set can be described thus: Encapsulation of curcumin into cultured yeast, lipogenesis induced or suppressed. It is filed as physicochemical, Lipomyces starkeyi. The conditions noted are these: vacuum infused, 35% ethanol. The text has this:
Increased lipid content both improves the relative encapsulation efficiency of hydrophobic bioactives and the oxidative stability of encapsulated bioactives. In this aim, three strains (Saccharomyces cerevisiae, Candida utilis, Phaffia rhodozyma) of yeast with high and low lipid content (high lipid ascomycete and Saccharomyces cerevisiae (low lipid)) are selected. Similarly, and two strains of algal cells are selected (Chlorella minutissima (UTEX 2341), Chlorella sorokiniana (UTEX 2805). The yeast and algal cells are cultured to achieve varying levels of lipid content by influencing the extracellular nutrients, e.g. in the case of algal cells, deprivation of nitrogen in extracellular media can shift the metabolism to generate lipids, with varying levels of nitrogen, intracellular lipid content is modulated. The intracellular lipids are extracted from freeze dried yeast and algal cells and measured using established gravimetric methods. To induce lipogenesis, 5 mL of the pre-culture are transferred into a 500 mL baffled conical flask with 95 mL of media A (50 g/L glucose, 1.5 g/L yeast extract, 0.5 g/L NH4Cl, 7.0 g/L KH2PO4, 2.5 g/L Na2HPO4.2H2O, 1.5 g/L MgSO4.7H2O, 0.08 g/L FeCl3.6H2O, 10.0 mg/L ZnSO4.7H2O, 0.07 mg/L MnSO4.H2O, 0.1 mg/L CuSO4, 0.063 mg/L Co(NO3)2) and closed with a foam cap. […]

In the case of `COc1cc(/C=C/C(=O)CC(=O)/C=C/c2ccc(O)c(OC)c2)ccc1O` [Curcumin, curcumin], the “Mass of Encapsulated Bioactive in Yeast” value is on record as 0.559 mg/g (lipogenesis Induced) and 0.466 mg/g (lipogenesis Suppressed).
